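96-well plates; 48 h exposure; 5 concentrations. Endpoints by linear interpolation between flanking doses. Not reached: highest tested concentration assigned. Abbreviation: GI50, concentration required for 50% inhibition of growth. TGI marks complete inhibition of growth.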
Key:
Experiment in all cases: growth of human tumour cells (NCI), 48 h
[1] = system: HOP-62 NSCLC
[2] = system: A498 renal
[3] = system: UO-31 renal
[4] = system: EKVX NSCLC
[5] = system: HT29 colon
[6] = system: KM12 colon
[7] = system: T-47D breast
[8] = system: HCT-15 colon
[9] = system: ACHN renal
[10] = system: COLO 205 colon
[11] = system: RPMI-8226 leukemia
[12] = system: SF-268 CNS
[13] = system: SK-MEL-2 melanoma
[14] = system: HOP-92 NSCLC
[15] = system: RXF 393 renal
[16] = system: SNB-19 CNS
[17] = system: NCI-H522 lung
[18] = system: SF-295 CNS
[19] = system: MDA-MB-231 breast
[20] = system: MDA-MB-435
[21] = system: SK-MEL-28 melanoma
[22] = system: SNB-75 CNS
[23] = system: HCT-116 colon
[24] = system: HCC-2998 colon
[25] = system: OVCAR-4 ovarian
[26] = system: LOX IMVI melanoma
[27] = system: HL-60(TB) leukemia
[28] = system: OVCAR-8 ovarian

**Q.** `Cn1cc(-c2cc(N)n3nc(-c4c[nH]c5ccccc45)cc3n2)c2cc(Br)cnc21` was tested. Which GI50 [1] did it give?
**A.** 2.12 µM

**Q.** What about the TGI [1] of the same compound?
**A.** 5.44 µM

**Q.** And the GI50 [2]?
**A.** 4.9 µM

**Q.** What about the TGI [2] of the same compound?
**A.** 19.1 µM

**Q.** What about the GI50 [3] of the same compound?
**A.** 2.48 µM

**Q.** And the TGI [3]?
**A.** 10.6 µM

**Q.** And the GI50 [4]?
**A.** 3.14 µM

**Q.** And the TGI [4]?
**A.** 13.7 µM

**Q.** What about the GI50 [5] of the same compound?
**A.** 1.8 µM

**Q.** And the TGI [5]?
**A.** 3.61 µM

**Q.** What about the GI50 [6] of the same compound?
**A.** 1.79 µM

**Q.** What about the TGI [6] of the same compound?
**A.** 3.98 µM

**Q.** And the GI50 [7]?
**A.** 3.22 µM

**Q.** What about the TGI [7] of the same compound?
**A.** 14.3 µM

**Q.** And the GI50 [8]?
**A.** 1.7 µM

**Q.** And the TGI [8]?
**A.** 3.51 µM

**Q.** And the GI50 [9]?
**A.** 2.17 µM

**Q.** And the TGI [9]?
**A.** 6.21 µM

**Q.** What about the GI50 [10] of the same compound?
**A.** 1.96 µM

**Q.** And the TGI [10]?
**A.** 3.59 µM

**Q.** And the GI50 [11]?
**A.** 3.07 µM

**Q.** What about the TGI [11] of the same compound?
**A.** 10.5 µM

**Q.** What about the GI50 [12] of the same compound?
**A.** 2.42 µM

**Q.** And the TGI [12]?
**A.** 7.66 µM

**Q.** And the GI50 [13]?
**A.** 1.99 µM

**Q.** And the TGI [13]?
**A.** 4.48 µM

**Q.** What about the GI50 [14] of the same compound?
**A.** 1.65 µM

**Q.** And the TGI [14]?
**A.** 3.44 µM

**Q.** What about the GI50 [15] of the same compound?
**A.** 2.54 µM

**Q.** And the TGI [15]?
**A.** 6.15 µM

**Q.** And the GI50 [16]?
**A.** 2.76 µM

**Q.** What about the TGI [16] of the same compound?
**A.** 8.76 µM

**Q.** What about the GI50 [17] of the same compound?
**A.** 1.84 µM

**Q.** What about the TGI [17] of the same compound?
**A.** 3.67 µM

**Q.** What about the GI50 [18] of the same compound?
**A.** 1.81 µM

**Q.** What about the TGI [18] of the same compound?
**A.** 3.87 µM

**Q.** And the GI50 [19]?
**A.** 1.79 µM

**Q.** And the TGI [19]?
**A.** 3.91 µM

**Q.** And the GI50 [20]?
**A.** 1.93 µM

**Q.** What about the TGI [20] of the same compound?
**A.** 3.96 µM

**Q.** And the GI50 [21]?
**A.** 2.18 µM

**Q.** What about the TGI [21] of the same compound?
**A.** 5.6 µM

**Q.** What about the GI50 [22] of the same compound?
**A.** 1.7 µM

**Q.** What about the TGI [22] of the same compound?
**A.** 17.1 µM

**Q.** And the GI50 [23]?
**A.** 1.82 µM

**Q.** And the TGI [23]?
**A.** 3.39 µM

**Q.** What about the GI50 [24] of the same compound?
**A.** 1.65 µM

**Q.** And the TGI [24]?
**A.** 3.08 µM

**Q.** And the GI50 [25]?
**A.** 2.7 µM

**Q.** What about the TGI [25] of the same compound?
**A.** 9.4 µM

**Q.** What about the GI50 [26] of the same compound?
**A.** 1.64 µM

**Q.** What about the TGI [26] of the same compound?
**A.** 2.99 µM

**Q.** And the GI50 [27]?
**A.** 2.01 µM

**Q.** And the TGI [27]?
**A.** 4.67 µM

**Q.** And the GI50 [28]?
**A.** 3.22 µM

— PubChem BioAssay (NCI)
